The values that follow come from patent US20060058392A1, “Use of a rhein in a therapeutic treatment requiring a rise in the rate of heme oxygenase” (priority 2002, published 2006).

Molecules are shown by their SMILES.

Data set [1] has as its system heme oxygenase-1 (HO-1). As to the kind of experiment: Western blot of HO-1 expression in rat femoral head cartilage culture. It is filed as cell-based. The following applies: diacerein 10 μM and 100 μM, compared to control and reference solution, FIG. 7a. For orientation: Immunoblotting shows a protein as a band on a membrane.
Data set [2] relates to heme oxygenase-1 (HO-1). As to the kind of experiment: Western blot of HO-1 expression in mice macrophages. The following applies: 10^−5 M, analysed at 15, 30, 60 min (diacerein, FIG. 7b) or 0-120 min and 18 h (rhein, FIG. 7c). It is filed as cell-based. How it is done:
FIGS. 7b and 7c are also <<Western blots >> of cells (model: mice macrophages) cultivated with and without diacerein (FIG. 7b: columns “Dε” and “Cε” respectively) or rhein (FIG. 7c) at a concentration of 10^−5 M, and later analysed at 15, 30 and 60 minutes (FIG. 7b) and at 0, 15, 30, 60, 120 minutes as well as 18 hours (FIG. 7c). The identity of the protein of interest, HO-1, was confirmed as regards its molecular mass (first column on the left in the Figures).

The test system of data set [3] is human chondrocytes. Kind of data set: Human chondrocyte culture treated with erythrocyte lysate (cellular viability, apoptosis). The class given is cell-based. The following applies: lysate of 3×10^6 erythrocytes, 100 μM. Here is the method: The whole cellular culture was measured by its cellular viability (live cells compared to the control), the presence of apoptosis (nuclear fragmentation; in number and percentage compared to the control), and the incorporation of radioactive sulphate (^35SO4; in coups per minutes, CPM).
As was already observed with the femoral head cartilage, the erythrocytes, erythrocyte lysate and haemoglobin also cause cellular destruction in this model. However, stress-induced HSPs prevent this cellular destruction and preserve the cells, as shown on FIG. 6 which counts the live cells (model: human chondrocytes under thermal stress (1 h at 43° C.) and treated with erythrocyte lysate (3×10^6); sem=standard error).

The subject of data set [4] is TO mice implanted with rat tissue. Kind of data set: Induced granuloma and tissue degradation of rat tissue implanted subcutaneously in mice. The class given is in vivo, mouse. The following applies: for integrity of the implanted/grafted tissue / tissular reaction (granuloma, inflammatory cells, exudate) caused by the transplant of rat tissue to the mouse: overall statement. Here is the method:
The effect of diacerein, rhein and their salts or esters on the intensity of the tissular reaction and the destruction and rejection phenomena was assessed following a tissue implantation, using the model of induced granuloma and tissue degradation of rat tissue in mice (Bottomley K M and al., Osteoarthritis and Cartilage (1998) 6: 19-23.).
The method comprises the following steps: • The isolated tissue (Wistar rat, male) are placed in sterile cotton and implanted subcutaneously in TO mice; • the subcutaneous implants are kept for a period of 2 weeks; • daily treatment of the animals with diacerein, rhein, their salts or esters, as well as with the controls and comparatives, at the optimum doses indicated; • collection of the implanted tissue and of the reactive granuloma; • measurement of the degree of tissular inflammatory response (assessment of the dimensions of the granuloma, of the number of inflammatory cells in the exudate and of the volume of the exudate), and of the rejection (assessment of the degradation of the implanted tissue).

For data set [5] the following is noted: cited from earlier work.
In data set [6] the test system is patients presenting with osteoarthritis. The following applies: cited from earlier work; for antalgic and anti-inflammatory symptomatic activity: acute phase of osteoarthritis, Nguyen et al. 1994.

With `CC(=O)Oc1cccc2c1C(=O)c1c(OC(C)=O)cc(C(=O)O)cc1C2=O` [diacerein], in data set [1], the “expression of HO-1” value is “dose-dependent increase”. Also, the “expression of HO-1” value in data set [2] was “time-dependant increase”. For the same compound, in data set [3] (FIG. 8), the “cellular destruction caused by the erythrocyte lysate (live cells)” value is “prevents the cellular destruction”. The “tissular reaction (formation of the reactive granuloma)” value in data set [4] (5, 15 and 50 mg/kg per oral route, daily, 2 weeks, p<0.01 vs control, FIG. 10) is given as “dose-dependent reduction”. The “integrity of the grafted tissue: content in collagen” value in data set [4] (5, 15 and 50 mg/kg per oral route, p<0.05 / p<0.01 vs control, FIG. 12 left) is “preserves the integrity of the grafted tissue”. Also, in data set [4] (5, 15 and 50 mg/kg per oral route, p<0.05 / p<0.01 vs control, FIG. 12 right), the “integrity of the grafted tissue: content in glycosamino-glycan (GAG)” value is “preserves the integrity of the grafted tissue”. Further, in data set [4] (5, 15 and 50 mg/kg per oral route, p<0.05 vs control, FIG. 11 left), the “tissular reaction: number of inflammatory cells” value is reported as “reduced in a dose-dependent manner”. Besides, the “tissular reaction: volume of the exudate” value in data set [4] (5, 15 and 50 mg/kg per oral route, p<0.05 vs control, FIG. 11 right) is listed as “reduced in a dose-dependent manner”. In addition, in data set [4], the “integrity of the implanted/grafted tissue” value is given as “preserve the integrity of the implanted tissue” and the “tissular reaction (granuloma, inflammatory cells, exudate) caused by the transplant of rat tissue to the mouse” value is recorded as “reduce the tissular reaction”. Also, in data set [5], the solubility in alcohols entry is recorded as “very slightly soluble” and the solubility in water entry is listed as “very slightly soluble”. Further, the “antalgic and anti-inflammatory symptomatic activity” value in data set [6] is reported as “moderate”. In data set [6] (patients with osteoarthritis), the progression of osteoarthritis result is reported as “slows down the progression of osteoarthritis” and the safety of use result was “good safety of use”.

As to `O=C(O)c1cc(O)c2c(c1)C(=O)c1cccc(O)c1C2=O` [rhein], the “expression of HO-1” value in data set [2] is listed as “time-dependant increase”. Also, in data set [3] (FIG. 9), the “apoptosis caused by the erythrocyte lysate” value is “prevents the apoptosis”. In data set [4], the “integrity of the implanted/grafted tissue” value was “preserve the integrity of the implanted tissue” and the “tissular reaction (granuloma, inflammatory cells, exudate) caused by the transplant of rat tissue to the mouse” value is listed as “reduce the tissular reaction”. Besides, in data set [5], the solubility in alcohols entry was “very slightly soluble” and the solubility in water entry is given as “very slightly soluble”. Besides, the “antalgic and anti-inflammatory symptomatic activity” value in data set [6] is listed as “moderate”.
